# Target: T1, intracellular domain of human Tie2 (GST fusion protein) (Homo sapiens, UniProt Q02763)
# T1 construct: intracellular domain of human Tie2 (amino acids 776-1124); made in house; host or cells: Baculovirus-infected insect cells (Hi5)
# Assay: Tie2 kinase assay (Tie2-TR-FRET)
# Format: biochemical
# Conditions: ATP concentration 1 mM, in some cases means of several independent determinations
# Outline: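 High ATP (1 mM final) with 1 μM biotin-peptide substrate; reaction 60 min at 22 °C after 15 min compound pre-binding to GST-Tie2 (aa 776-1124) in HEPES pH 7 with Mg/Mn. Phosphopeptide detected by TR-FRET emission ratio 665/620 nm. IC50 from 4-parameter fit over 20 μM to 0.073 nM, duplicates.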
# T1 sequence (Q02763 776-1124): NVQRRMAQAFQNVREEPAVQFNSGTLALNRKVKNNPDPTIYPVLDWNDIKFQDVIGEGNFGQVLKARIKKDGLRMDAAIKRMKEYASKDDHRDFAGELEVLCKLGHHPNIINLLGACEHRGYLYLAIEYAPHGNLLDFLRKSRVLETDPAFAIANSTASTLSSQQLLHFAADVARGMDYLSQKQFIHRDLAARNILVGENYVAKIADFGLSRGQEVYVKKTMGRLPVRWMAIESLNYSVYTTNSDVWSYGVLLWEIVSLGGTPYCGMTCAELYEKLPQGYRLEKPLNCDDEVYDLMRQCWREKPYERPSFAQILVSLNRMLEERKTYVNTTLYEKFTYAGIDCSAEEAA
row,SMILES,IC50
1,"Cc1cc(C)c(-n2ccn3nc(-c4cncnc4)cc23)cc1NC(=O)c1cc(Br)cc(S(F)(F)(F)(F)F)c1 [Example 165, 3-Bromo-N-{2,4-dimethyl-5-[6-(pyrimidin-5-yl)-1H-imidazo[1,2-b]pyrazol-1-yl]phenyl}-5-(pentafluoro-λ^6-sulphanyl)benzamide]",1.7 nM
2,"Cc1cc(C)c(-n2ccn3nc(-c4cncnc4)cc23)cc1NC(=O)c1cc(C#N)cc(S(F)(F)(F)(F)F)c1 [Example 166, 3-Cyano-N-{2,4-dimethyl-5-[6-(pyrimidin-5-yl)-1H-imidazo[1,2-b]pyrazol-1-yl]phenyl}-5-(pentafluoro-λ^6-sulphanyl)benzamide]",0.3 nM
3,"Cc1ccc(NC(=O)c2cc(C#N)cc(S(F)(F)(F)(F)F)c2)cc1-n1ccn2nc(-c3ccnnc3)cc12 [Example 168, 3-Cyano-N-{4-methyl-3-[6-(pyridazin-4-yl)-1H-imidazo[1,2-b]pyrazol-1-yl]phenyl}-5-(pentafluoro-λ^6-sulphanyl)benzamide]",726 nM
4,"Cc1cc(C)c(-n2ccn3nc(-c4cccnn4)cc23)cc1NC(=O)c1cccc(S(F)(F)(F)(F)F)c1 [Example 169, N-{2,4-Dimethyl-5-[6-(pyridazin-3-yl)-1H-imidazo[1,2-b]pyrazol-1-yl]phenyl}-3-(pentafluoro-λ^6-sulphanyl)benzamide]",1 nM
5,"Cc1cc(C)c(-n2ccn3nc(-c4cccnn4)cc23)cc1NC(=O)c1cc(Br)cc(S(F)(F)(F)(F)F)c1 [Example 170, 3-Bromo-N-{2,4-dimethyl-5-[6-(pyridazin-3-yl)-1H-imidazo[1,2-b]pyrazol-1-yl]phenyl}-5-(pentafluoro-λ^6-sulphanyl)benzamide]",1.2 nM
6,"Cc1cc(C)c(-n2ccn3nc(-c4cccnn4)cc23)cc1NC(=O)c1cc(C#N)cc(S(F)(F)(F)(F)F)c1 [Example 171, 3-Cyano-N-{2,4-dimethyl-5-[6-(pyridazin-3-yl)-1H-imidazo[1,2-b]pyrazol-1-yl]phenyl}-5-(pentafluoro-λ^6-sulphanyl)benzamide]",0.3 nM
7,"Cc1ccc(NC(=O)c2cccc(S(F)(F)(F)(F)F)c2)cc1-n1ccn2nc(-c3cncs3)cc12 [Example 172, N-{4-Methyl-3-[6-(1,3-thiazol-5-yl)-1H-imidazo[1,2-b]pyrazol-1-yl]phenyl}-3-(pentafluoro-λ^6-sulphanyl)benzamide]",7.8 nM
8,"Cc1ccc(NC(=O)c2cc(F)cc(S(F)(F)(F)(F)F)c2)cc1-n1ccn2nc(-c3cncs3)cc12 [Example 173, 3-Fluoro-N-{4-methyl-3-[6-(1,3-thiazol-5-yl)-1H-imidazo[1,2-b]pyrazol-1-yl]phenyl}-5-(pentafluoro-λ^6-sulphanyl)benzamide]",9.3 nM
9,"Cc1ccc(NC(=O)c2cc(Cl)cc(S(F)(F)(F)(F)F)c2)cc1-n1ccn2nc(-c3cncs3)cc12 [Example 174, 3-Chloro-N-{4-methyl-3-[6-(1,3-thiazol-5-yl)-1H-imidazo[1,2-b]pyrazol-1-yl]phenyl}-5-(pentafluoro-λ^6-sulphanyl)benzamide]",2.8 nM
10,"Cc1ccc(NC(=O)c2cc(Br)cc(S(F)(F)(F)(F)F)c2)cc1-n1ccn2nc(-c3cncs3)cc12 [Example 175, 3-Bromo-N-{4-methyl-3-[6-(1,3-thiazol-5-yl)-1H-imidazo[1,2-b]pyrazol-1-yl]phenyl}-5-(pentafluoro-λ^6-sulphanyl)benzamide]",3.2 nM
11,"Cc1ccc(NC(=O)c2cc(S(C)(=O)=O)cc(S(F)(F)(F)(F)F)c2)cc1-n1ccn2nc(-c3cncs3)cc12 [Example 176, 3-(Methylsulphonyl)-N-{4-methyl-3-[6-(1,3-thiazol-5-yl)-1H-imidazo[1,2-b]pyrazol-1-yl]phenyl}-5-(pentafluoro-λ^6-sulphanyl)benzamide]",0.8 nM
12,"Cc1ccc(NC(=O)c2cc(C#N)cc(S(F)(F)(F)(F)F)c2)cc1-n1ccn2nc(-c3cncs3)cc12 [Example 177, 3-Cyano-N-{4-methyl-3-[6-(1,3-thiazol-5-yl)-1H-imidazo[1,2-b]pyrazol-1-yl]phenyl}-5-(pentafluoro-λ^6-sulphanyl)benzamide]",1.8 nM

# Source: patent US20150005288A1, “SUBSTITUTED PHENYLIMIDAZOPYRAZOLES AND USE THEREOF” (Bayer Intellectual Property GmbH, priority 2012, published 2015)
